Patent US20080242870A1 (priority 2006, published 2008)
Where “and” joins values, the source holds several entries; their conditions need not be identical. Identical values can stand only once.

Legend:
[1] = Radiative quantum yield against standards (Example 1); assay type: physicochemical
Procedure: (§1) Unless otherwise stated, all experiments used optically dilute solutions (Optical Density (OD)<0.2) at room temperature. […] Emission spectra were obtained with an Aminco-Bowman luminescence spectrometer (Series 2). The excitation was accomplished with a 150 W Xe lamp optically coupled to a monochrometer (+2 nm). The emission was collected at […] and passed through a second monochrometer (±2 nm). Luminescence was measured with a photomultiplier tube (PMT).

[2] = Emission spectra of anthracene diimides at room temperature (Example 1); assay type: physicochemical; details: for Em. λmax: (p) peak, (s) shoulder
Procedure: as §1

[3] = Sub-ambient (77 K) emission in 2-methyltetrahydrofuran; assay type: physicochemical; details: for emission bands: 2-methyltetrahydrofuran, 405 nm excitation
Procedure: FIGS. 7a and 7b show normalized emission spectra for the diphenyl anthracene diimides (top) and the tetraphenyl anthracene diimides (bottom) at 77° K in 2-methyltetrahydrofuran and 405 nm excitation.
In an attempt to better understand the excited state properties of the diphenyl and tetraphenyl anthracene diimides, sub-ambient (77 K) emission experiments were performed, with the results shown in FIGS. 7a and 7b. In the case of the diphenyl derivatives, DPO (35), DP (37), and DC (39) display similar emission spectra with overlapping bands near 434 nm, […], and 492 nm. Although the peak ratios differ slightly, the band shapes and positions are nearly identical. […] Similar results are observed for the tetraphenyl series. Here, TPO (40) and TP (41) display spectral features analogous to DPO (35), DP (37), and DC (39), but at lower energy.

[4] = Absorption spectra of anthracene diimides in solvents of increasing polarity (Example 1); assay type: physicochemical
[5] = Luminescence lifetime by TCSPC (Example 1); assay type: physicochemical; details: for 1τ: TCSPC 370 nm pulsed LED
Procedure: (§2) Luminescence lifetimes were measured with an IBH time-correlated single photon counting (TCSPC) system equipped with an IBH Model TBX-04 Photon Detection Module. The excitation source for the TCSPC measurements was a pulsed LED (IBH NanoLED, 455 nm, 1.3 ns pulse duration or 403 nm, <200 ps pulse duration) with a repetition rate of 1 MHz. All data was analyzed by iterative reconvolution of the decay profile (10,000 counts at the peak channel) with the instrument response function using software provided by the instrument manufacturer.

[6] = depending on the solvent
Procedure: as §2

[7] = Stokes shift / Lippert-Mataga solvatochromic analysis; assay type: physicochemical
Text: The solvatochromic response of the anthracene diimides to photoexcitation was further characterized by analysis of the Stokes' shift and Lippert-Mataga polarity parameter,
where v is the Stokes' shift in wavenumbers, h is Plank's constant, c is the speed of light, ∈0 is the permittivity of free space, Δμ is the change in the dipole moment upon excitation, α^3 is the molecule's volume, as is the solvent dielectric constant, and n is the solvent refractive index. This relationship quantifies the change in dipole between the ground state and excited state of a molecule and, when used with the calculated ground state dipole, the magnitude of the excited state dipole moment may be estimated. Each line represents a solvatochromic emission component of the corresponding diimide. All other bands were not solvatochromic and not included in the analysis. For example, the emission spectra of DPO (35) in the selection of solvents were nearly identical and could not be used in the Lippert-Mataga correlations. DP (37) had two components in the emission profiles; a higher energy band that quickly disappeared with increasing solvent polarity and a lower energy component that red-shifted with increasing solvent polarity.

[8] = in toluene
[9] = in toluene; remark: listed apart in the source

| Compound | Φr ([1]; ACN (38.8)) | Φr ([1]; Acetone (20.1)) | Φr ([1]; C2H4Cl2 (10.7)) | Φr ([1]; CHCl3 (4.8)) | Φr ([1]; Ethyl Acetate (6.02)) | Φr ([1]; THF (7.6)) | Φr ([1]; Toluene (2.4)) | Em. λmax ([2]; Acetone (20.1)) | Em. λmax ([2]; C2H4Cl2 (10.7)) | Em. λmax ([2]; CHCl3 (4.8)) | Em. λmax ([2]; Ethyl Acetate (6.02)) | Em. λmax ([2]; THF (7.6)) | Em. λmax ([2]; Toluene (2.4)) | Abs. λmax ([4]; Acetone (20.1)) [nm] | Abs. λmax ([4]; C2H4Cl2 (10.7)) [nm] | Abs. λmax ([4]; CHCl3 (4.8)) [nm] | Abs. λmax ([4]; Ethyl Acetate (6.02)) [nm] | Abs. λmax ([4]; THF (7.6)) [nm] | Abs. λmax ([4]; Toluene (2.4)) [nm] | 1τ ([5]; Toluene (2.4)) [ns] | other results |
| --- | --- | --- | --- | --- | --- | --- | --- | --- | --- | --- | --- | --- | --- | --- | --- | --- | --- | --- | --- | --- | --- |
| CCCCCCCCn1c(=O)c2cc3cc4c(-c5ccccc5)c5c(=O)n(CCCCCCCC)c(=O)c5cc4cc3c(-c3ccccc3)c2c1=O [DPO] | 0.46 | 0.37 | 0.46 | 0.36 | 0.34 | 0.37 | 0.35 | 435(p) nm | 436(p) nm | 437(p) nm | 433(p) nm | 435(p) nm | 437(p) nm | 421 | 424 | 426 | 420 | 421 | 422 | 6.36 | Em. λmax ([2]; ACN (38.8)): 435(p) nm; emission bands ([3]; listed as DPO (35)): ~434 nm and ~461 nm and ~492 nm; Abs. λmax ([4]; ACN (38.8)): 423 nm; 1τ ([5]; ACN (38.8)): 8.03 ns; 1τ ([5]; Acetone (20.1)): 7.29 ns; 1τ ([5]; C2H4Cl2 (10.7)): 5.60 ns; 1τ ([5]; CHCl3 (4.8)): 5.79 ns; 1τ ([5]; Ethyl Acetate (6.02)): 6.90 ns; 1τ ([5]; THF (7.6)): 6.71 ns |
| N,N′-Bis(m-(boronic acid)phenyl)-1,5-bis(phenyl)anthracene-2,3,6,7-tetracarboxyl diimide |  |  |  |  |  |  |  |  |  |  |  |  |  |  |  |  |  |  |  |  | lifetime (single exponential) [6]: 5-5.5 ns |
| CCCCCCCCn1c(=O)c2c(-c3ccccc3)c3cc4c(-c5ccccc5)c5c(=O)n(CCCCCCCC)c(=O)c5c(-c5ccccc5)c4cc3c(-c3ccccc3)c2c1=O [TPO] | 0.24 | 0.21 | 0.23 | 0.26 | 0.21 | 0.20 | 0.19 | 443(p) nm and 466(p) nm | 445(p) nm and 470(p) nm | 447(p) nm and 471(p) nm | 442(p) nm and 465(p) nm | 445(p) nm and 467(p) nm | 447(p) nm and 468(p) nm | 427 | 430 | 432 | 426 | 427 | 428 | 2.77 | Em. λmax ([2]; ACN (38.8)): 443(p) nm and 468(p) nm; emission band position ([2]; room temperature, all solvents): ~428 nm; Abs. λmax ([4]; ACN (38.8)): 428 nm; 1τ ([5]; ACN (38.8)): 3.84 ns; 1τ ([5]; Acetone (20.1)): 3.34 ns; 1τ ([5]; C2H4Cl2 (10.7)): 3.19 ns; 1τ ([5]; CHCl3 (4.8)): 3.54 ns; 1τ ([5]; Ethyl Acetate (6.02)): 3.12 ns; 1τ ([5]; THF (7.6)): 3.03 ns |
| CCCCCCOc1ccc(-n2c(=O)c3cc4cc5c(-c6ccc(OC)cc6)c6c(=O)n(-c7ccc(OCCCCCC)cc7)c(=O)c6cc5cc4c(-c4ccc(OC)cc4)c3c2=O)cc1 [DM] | 0.0087 | 0.011 | 0.030 | 0.064 | 0.028 | 0.021 | 0.18 | 463(p) nm and 492(p) nm and 554(p) nm | 463(p) nm and 490(s) nm and 526(p) nm | 491(s) nm and 465(p) nm | 463(p) nm and 488(p) nm and 526(p) nm | 463(p) nm and 494(p) nm and 538(p) nm | 462(p) nm and 488(s) nm | 426 | 430 | 431 | 425 | 426 | 428 | 1.25 | Em. λmax ([2]; ACN (38.8)): 463(p) nm and 487(s) nm and 551(p) nm; red shift of emission spectrum ([3]; relative to the other members of the series): 13 nm; Abs. λmax ([4]; ACN (38.8)): 427 nm; 1τ ([5]; C2H4Cl2 (10.7)): 0.34 ns; 1τ ([5]; CHCl3 (4.8)): 0.59 ns |
| CCCCCCOc1ccc(-n2c(=O)c3c(-c4ccccc4)c4cc5c(-c6ccccc6)c6c(=O)n(-c7ccc(OCCCCCC)cc7)c(=O)c6c(-c6ccccc6)c5cc4c(-c4ccccc4)c3c2=O)cc1 [TP] | 0.0080 | 0.011 | 0.029 | 0.08 | 0.023 | 0.027 | 0.21 | 454(p) nm and 576(p) nm | 450(p) nm and 478(p) nm and 497(p) nm and 549(p) nm | 450(p) nm and 482(p) nm and 564(p) nm | 448(s) nm and 499(s) nm and 549(p) nm | 459(s) nm and 499(s) nm and 552(p) nm | 482(p) nm and 520(s) nm | 429 | 435 | 435 | 428 | 429 | 431 | 1.03 | Em. λmax ([2]; ACN (38.8)): 456(p) nm and 474(s) nm and 585(p) nm; Em. λmax ([2]; Toluene (2.4), listed as TP (41)): ~431 nm; Abs. λmax ([4]; ACN (38.8)): 431 nm |
| CCCCCCOc1ccc(-n2c(=O)c3cc4cc5c(-c6ccccc6)c6c(=O)n(-c7ccc(OCCCCCC)cc7)c(=O)c6cc5cc4c(-c4ccccc4)c3c2=O)cc1 [DP] |  | 0.0082 | 0.020 | 0.028 | 0.015 | 0.017 | 0.066 | 500(s) nm and 584(p) nm | 502(s) nm and 557(p) nm | 536(p) nm and 501(p) nm | 500(s) nm and 555(p) nm | 502(s) nm and 562(p) nm | 497(p) nm and 525(p) nm | 423 | 426 | 428 | 421 | 422 | 422 | 0.62 | Φr ([1]; Toluene (2.4), listed as DP (37)): 0.18; emission bands ([3]; listed as DP (37)): ~434 nm and ~461 nm and ~492 nm; slope of Lippert plot ([7]; second (lower energy) emission component, R^2=0.99): 6,600.2 cm^−1; 1τ ([5]; Acetone (20.1)): <0.20 ns; 1τ ([5]; C2H4Cl2 (10.7)): <0.20 ns; 1τ ([5]; CHCl3 (4.8)): 0.38 ns; 1τ ([5]; Ethyl Acetate (6.02)): <0.20 ns; 1τ ([5]; THF (7.6)): <0.20 ns; lifetime ([5]; in ethyl acetate and solvents of higher polarity): below 200 ps; lifetime ([5]; in toluene): 620 ps |
| N,N′-Bis(p-(tert-butyl)phenyl)-1,5-bis(phenyl)anthracene-2,3,6,7-tetracarboxyl diimide |  |  |  |  |  |  |  |  |  |  |  |  |  |  |  |  |  |  |  |  | extinction coefficient, ∈ [8]: 8,500 M^−1 cm^−1; lifetime (single exponential) [6]: around 5.5 ns; quantum yield, Φ [9]: 0.29 |
| CCCCCCOc1ccc(-n2c(=O)c3cc4cc5c(-c6ccc(C#N)cc6)c6c(=O)n(-c7ccc(OCCCCCC)cc7)c(=O)c6cc5cc4c(-c4ccc(C#N)cc4)c3c2=O)cc1 [DC] | 0.0051 | 0.0062 | 0.017 | 0.025 | 0.012 | 0.013 | 0.046 | 599(p) nm | 571(p) nm | 555(p) nm and 504(s) nm | 573(p) nm | 579(p) nm | 505(s) nm and 543(p) nm | 423 | 425 | 425 | 418 | 420 | 417 | 0.39 | Em. λmax ([2]; ACN (38.8)): 600(p) nm; emission bands ([3]; listed as DC (39)): ~434 nm and ~461 nm and ~492 nm; Abs. λmax ([4]; ACN (38.8)): 423 nm; calculated dipole change (Δμ) ([7]; Lippert-Mataga correlation): 31.1 D; Stokes' shift of charge transfer excited state ([7]; from toluene to acetonitrile): 95 nm; 1τ ([5]; ACN (38.8)): <0.20 ns; 1τ ([5]; Acetone (20.1)): <0.20 ns; 1τ ([5]; C2H4Cl2 (10.7)): 0.21 ns; 1τ ([5]; CHCl3 (4.8)): 0.27 ns; 1τ ([5]; Ethyl Acetate (6.02)): <0.20 ns; 1τ ([5]; THF (7.6)): <0.20 ns |
